The source of these data is ChEMBL document CHEMBL4483862, “Open-source discovery of chemical leads for next-generation chemoprotective antimalarials” (2018).

This experiment has as its system Plasmodium berghei. Put plainly: Luciferase/luciferin-expressing antifolate-resistant parasites were used to infect a culture of HepG2 cells that were pre-incubated with compounds. Infected hepatocytes emit light due to the luciferase reaction. Assay results are presented as the percent inhibition of light emission compared to control. […]. The class given is functional. Conditions: sporozoite; for IC90: read-out: LUCIFERASE INFECTION ASSAY - IC90.

Setting [1] is: read-out: LUCIFERASE INFECTION ASSAY - IC50.

Each structure is given as a SMILES string.

As usually defined, the IC50 is the concentration that gives 50% inhibition. For orientation: IC90 means the concentration at which the effect reaches the 90% level. For `c1ccc2sc(-c3nc4ccccc4s3)nc2c1`, the IC90 was greater than 10 µM. Also, for the setting “PBLUC_HILL_SLOPE 0.811, PBLUC_R_SQUARED 0.754, read-out: LUCIFERASE INFECTION ASSAY - IC50”, the IC50 is 1.16 µM.

For the compound `Cc1ncc(CC(=O)n2cc(C(=O)c3cc(F)ccc3O)cn2)s1`, the IC90 is greater than 10 µM. In addition, where the note is “PBLUC_HILL_SLOPE 0.716, PBLUC_R_SQUARED 0.277, read-out: LUCIFERASE INFECTION ASSAY - IC50”, the IC50 was greater than 10 µM.

On to `Cc1ccc(-c2nc(SCc3nc(=O)c4c(-c5ccccc5)csc4[nH]3)[nH]c2-c2ccc(C)cc2)cc1`, for which the IC90 is greater than 10 µM. Besides, the IC50 (FFLUC_HILL_SLOPE 10.3, FFLUC_R_SQUARED 0.755, read-out: LUCIFERASE INFECTION ASSAY - IC50) was greater than 10 µM.

Consider `CC1CCN(Cc2c(-c3ccccc3)n(C)c3ccccc23)CC1`, for which the IC90 was greater than 10 µM. Moreover, the IC50 under setting [1] is greater than 10 µM.

For the compound `CCc1ccccc1N(CC(=O)NCC(C)C)S(=O)(=O)c1ccc(C)cc1`, the IC90 is greater than 8.49 µM. For the same compound, under setting [1], the IC50 is greater than 8.49 µM.

With `O=C(CCc1nc2ccccc2s1)OCCOc1ccccc1F`, the 90% effect concentration (IC90) was greater than 10 µM. The IC50 under setting [1] was greater than 10 µM.

As for `O=S(=O)(Oc1ccc(Cl)cc1)c1cc(S(=O)(=O)c2ccccc2)cs1`, the IC90 is greater than 7.95 µM. Moreover, under setting [1], the IC50 is greater than 7.95 µM.

Regarding `O=C1C(=C2NC=C(c3ccc(Cl)cc3)O2)Sc2ncccc21`, the IC90 is 1.69 µM. The IC50 (HEPG2TOX_HILL_SLOPE 1.16, HEPG2TOX_R_SQUARED 0.581, PBLUC_HILL_SLOPE 117, PBLUC_R_SQUARED 0.316, read-out: LUCIFERASE INFECTION ASSAY - IC50) is 1.66 µM.

With `Cc1cccc(C)c1NC(=O)N1[C@@H]2CC[C@@H](C2)[C@H]1c1nc2c(OCCC3CCCCC3)cccc2[nH]1`, the IC90 was greater than 10 µM. Besides, the IC50 (FFLUC_HILL_SLOPE 3.83, FFLUC_R_SQUARED 0.822, PBLUC_HILL_SLOPE 12.1, PBLUC_R_SQUARED 0.296, read-out: LUCIFERASE INFECTION ASSAY - IC50) turned out to be 9.48 µM.

Consider `COC(=O)c1scc(C)c1N1C(=O)C=CC1=O`, for which the IC90 was greater than 13.1 µM. For the setting “PBLUC_HILL_SLOPE 9.1, PBLUC_R_SQUARED 0.327, read-out: LUCIFERASE INFECTION ASSAY - IC50”, the IC50 was greater than 13.1 µM.

With `COc1ccc(C(C)(C)C)cc1NC(=O)c1ccc(Cl)c(S(=O)(=O)N2CCc3ccccc32)c1`, the IC90 is greater than 10 µM. The IC50 (FFLUC_HILL_SLOPE 21.6, FFLUC_R_SQUARED 0.0861, HEPG2TOX_HILL_SLOPE 0.0233, HEPG2TOX_R_SQUARED 0.0468, PBLUC_HILL_SLOPE 7.45, PBLUC_R_SQUARED 0.387, read-out: LUCIFERASE INFECTION ASSAY - IC50) stood at 8.38 µM.

For the compound `COc1ccc(OC)c(CN2CCN(c3nc(-c4cccnc4)nc4sc(C)c(C)c34)CC2)c1`, the IC90 came out at 6.84 µM. Under “PBLUC_HILL_SLOPE 4.71, PBLUC_R_SQUARED 0.569, read-out: LUCIFERASE INFECTION ASSAY - IC50”, the IC50 is 4.29 µM.

As for `C/C(=N\OC(=O)Nc1ccccc1)c1sc2nc(C(F)(F)F)nn2c1C`, the IC90 is greater than 8.61 µM. Under setting [1], the IC50 was greater than 8.61 µM.

As for `CN(C)CCNc1cc(-c2ccco2)nc2ccccc12`, the IC90 worked out at 9.18 µM. In addition, the IC50 (HEPG2TOX_HILL_SLOPE 2.93, HEPG2TOX_R_SQUARED 0.885, PBLUC_HILL_SLOPE 3.51, PBLUC_R_SQUARED 0.62, read-out: LUCIFERASE INFECTION ASSAY - IC50) stood at 4.91 µM.

On to `Cc1ccc2c(Cl)cc(Cl)c(OCC(=O)NC3CCCCC3C)c2n1` (centres undefined), for which the IC90 was greater than 10 µM. Besides, the IC50 under setting [1] was greater than 10 µM.

As to `O=[N+]([O-])c1ccccc1Sc1sc2ncnc(N/N=C/c3cccs3)c2c1-c1ccccc1`, the IC90 is 1.17 µM. Moreover, the IC50 (FFLUC_HILL_SLOPE 2.47, FFLUC_R_SQUARED 0.702, HEPG2TOX_HILL_SLOPE 1.48, HEPG2TOX_R_SQUARED 0.963, PBLUC_HILL_SLOPE 5.47, PBLUC_R_SQUARED 0.841, read-out: LUCIFERASE INFECTION ASSAY - IC50) is 0.785 µM.

For the compound `CCCNC(=O)c1c(NC(=O)c2cccc(F)c2)nc2ccccn12`, the IC90 was found to be 7.76 µM. The IC50 under setting [1] worked out at 4.52 µM.

`Cc1cc(N2CCOCC2)ccc1NC(=O)CC1C=CCC1` (centres undefined): the IC90 was greater than 10 µM. Moreover, the IC50 under setting [1] is greater than 10 µM.

In the case of `Cc1ccc(C(C)CCN2CCc3c(c(C(=O)NCc4nccs4)nn3CC3CC3)C2)o1` (centres undefined), the IC90 was greater than 7.28 µM. The IC50 under setting [1] was greater than 7.28 µM.

`Fc1cccc(-c2cc3c(Nc4ccc5c(c4)OCCO5)nccc3[nH]2)c1`: the IC90 worked out at 7.25 µM. For the same compound, the IC50 (HEPG2TOX_HILL_SLOPE 14.3, HEPG2TOX_R_SQUARED 0.604, PBLUC_HILL_SLOPE 1.45, PBLUC_R_SQUARED 0.727, read-out: LUCIFERASE INFECTION ASSAY - IC50) was 1.59 µM.

On to `O=c1[nH]n(-c2ccc(Cl)c(Cl)c2)cc1-c1cccc(Cl)c1`, for which the IC90 worked out at 5.52 µM. For the setting “HEPG2TOX_HILL_SLOPE 2.22, HEPG2TOX_R_SQUARED 0.951, PBLUC_HILL_SLOPE 6.3, PBLUC_R_SQUARED 0.659, read-out: LUCIFERASE INFECTION ASSAY - IC50”, the IC50 amounted to 3.89 µM.

Turning to `COc1cc(-n2nnnc2-c2ccc([N+](=O)[O-])cc2)c(Cl)cc1Cl`, the IC90 is greater than 9.01 µM. Besides, under setting [1], the IC50 was greater than 9.01 µM.

With `COCc1cccc(C(=O)Nc2ccc3c(c2)OC(F)(F)O3)c1`, the IC90 was greater than 10 µM. Further, for the setting “HEPG2TOX_HILL_SLOPE 7.81, HEPG2TOX_R_SQUARED 0.0219, PBLUC_HILL_SLOPE 15.2, PBLUC_R_SQUARED 0.505, read-out: LUCIFERASE INFECTION ASSAY - IC50”, the IC50 turned out to be 9.35 µM.

On to `CC1(C)C=Cc2cc(C(=N)NOC(=O)c3cccs3)ccc2O1`, for which the IC90 is 0.21 µM.

As to `Cc1cc2oc(=O)cc(CN3CCC(c4c[nH]c5ccccc45)CC3)c2cc1C`, the concentration for an effect of 90% (IC90) is greater than 10 µM. Further, the IC50 (FFLUC_HILL_SLOPE 22.3, FFLUC_R_SQUARED 0.464, read-out: LUCIFERASE INFECTION ASSAY - IC50) is greater than 10 µM.

For the compound `O=c1cc(Nc2ccc(F)cc2)c2ccccc2o1`, the IC90 was 12.8 µM. Where the note is “PBLUC_HILL_SLOPE 3.61, PBLUC_R_SQUARED 0.0806, read-out: LUCIFERASE INFECTION ASSAY - IC50”, the IC50 amounted to 6.97 µM.

For the compound `COCCNc1nc(-c2c(-c3ccccc3)[nH]c3ccccc23)cs1`, the IC90 is greater than 10 µM. Moreover, under setting [1], the IC50 was greater than 10 µM.

Take `CN(Cc1ccc(C(N)=O)cc1)c1ncnc2ccccc12`: the IC90 came to 1.53 µM. The IC50 (HEPG2TOX_HILL_SLOPE 2.36, HEPG2TOX_R_SQUARED 0.863, PBLUC_HILL_SLOPE 14.7, PBLUC_R_SQUARED 0.585, read-out: LUCIFERASE INFECTION ASSAY - IC50) is 1.32 µM.

On to `Cc1ccc(Cn2c3nc(C#N)c(C#N)nc3c3c(=O)nc(C)[nH]c32)cc1`, for which the IC90 was greater than 10 µM. In addition, under setting [1], the IC50 was greater than 10 µM.

For `O=C(OCCSc1ccc([N+](=O)[O-])c2nonc12)c1ccc(F)cc1`, the IC90 is greater than 9.08 µM. Further, the IC50 (FFLUC_HILL_SLOPE 1.52, FFLUC_R_SQUARED 0.911, HEPG2TOX_HILL_SLOPE 8.69, HEPG2TOX_R_SQUARED 0.77, PBLUC_HILL_SLOPE 16.5, PBLUC_R_SQUARED 0.0304, read-out: LUCIFERASE INFECTION ASSAY - IC50) was greater than 9.08 µM.

With `CSc1ccc(C2=NNC(=NC3CC3)SC2)cc1`, the IC90 was greater than 10 µM. Besides, the IC50 (FFLUC_HILL_SLOPE 0.857, FFLUC_R_SQUARED 0.948, PBLUC_HILL_SLOPE 0.604, PBLUC_R_SQUARED 0.771, read-out: LUCIFERASE INFECTION ASSAY - IC50) was found to be 0.467 µM.

`CC(Cn1cccn1)NCc1ccc(F)c(F)c1` (centres undefined): the IC90 was greater than 10 µM. Under setting [1], the IC50 was greater than 10 µM.

With `Clc1ccc2c(NCc3ccc(CN4CCOCC4)cc3)ccnc2c1`, the IC90 came out at 4.14 µM. The IC50 (HEPG2TOX_HILL_SLOPE 2.51, 1.28, HEPG2TOX_R_SQUARED 0.778, 0.972, PBLUC_HILL_SLOPE 2.92, 9.52, PBLUC_R_SQUARED 0.401, 0.159, read-out: LUCIFERASE INFECTION ASSAY - IC50) amounted to 4.34 µM.

For `CCN1C(=O)N(C2Cc3ccccc3C2)C(=O)C12CCN(Cc1c[nH]nc1-c1ccc(F)cc1)CC2`, the IC90 is greater than 6.77 µM. The IC50 under setting [1] was found to be 4.54 µM.

Turning to `CC(C)(C)c1cc(C(=O)Nc2cc(-c3cccs3)nn2-c2ccc(I)cc2)n(Cc2ccccc2)n1`, the IC90 is greater than 5.43 µM. For the same compound, the IC50 (PBLUC_HILL_SLOPE 1.99, PBLUC_R_SQUARED 0.0392, read-out: LUCIFERASE INFECTION ASSAY - IC50) is 4.11 µM.

With `Cc1noc(C)c1C(=O)Nc1nc(-c2c[nH]c3ccccc23)cs1`, the IC90 is greater than 10 µM. Further, the IC50 under setting [1] is greater than 10 µM.

With `COCCN(Cc1nnc(-c2cccs2)o1)C(=O)c1cc(C2CC2)nc2c1cnn2C(C)C`, the IC90 is greater than 10 µM. Besides, under setting [1], the IC50 was greater than 10 µM.

As to `CCCCOc1ccc(/C=C/C(=O)NNC(=O)Cc2nc3ccccc3n2C)cc1OCC`, the IC90 was 9.1 µM. For the same compound, the IC50 (HEPG2TOX_HILL_SLOPE 2.18, HEPG2TOX_R_SQUARED 0.787, PBLUC_HILL_SLOPE 13.4, PBLUC_R_SQUARED 0.401, read-out: LUCIFERASE INFECTION ASSAY - IC50) was 7.73 µM.

For `CC(=O)N1CCC(C(=O)Nc2cc(C(F)(F)F)ccc2NC2CCCCC2)CC1`, the IC90 was greater than 10 µM. Further, the IC50 under setting [1] is greater than 10 µM.

Turning to `O=C(Nc1ccc(-c2nc3ccccc3[nH]2)cc1)c1ccc2c(=O)n3c(nc2c1)CCCCCC3`, the IC90 turned out to be 4.15 µM. For the same compound, the IC50 (HEPG2TOX_HILL_SLOPE 11.2, HEPG2TOX_R_SQUARED 0.937, PBLUC_HILL_SLOPE 12.6, PBLUC_R_SQUARED 0.815, read-out: LUCIFERASE INFECTION ASSAY - IC50) came to 3.48 µM.
